Reference: patent US20240360100A1, “HETEROCYCLIC COMPOUNDS AS SEROTONIN (5-HT) 5-HT2A AND 5-HT2C RECEPTOR POSITIVE ALLOSTERIC MODULATORS” (The Board of Regents of The University of Texas System, priority 2021, published 2024)

Target: T1, 5-HT2CR (Homo sapiens, UniProt P28335)
T1 construct: expressed in transfected cells
T1 sequence (P28335 33-458): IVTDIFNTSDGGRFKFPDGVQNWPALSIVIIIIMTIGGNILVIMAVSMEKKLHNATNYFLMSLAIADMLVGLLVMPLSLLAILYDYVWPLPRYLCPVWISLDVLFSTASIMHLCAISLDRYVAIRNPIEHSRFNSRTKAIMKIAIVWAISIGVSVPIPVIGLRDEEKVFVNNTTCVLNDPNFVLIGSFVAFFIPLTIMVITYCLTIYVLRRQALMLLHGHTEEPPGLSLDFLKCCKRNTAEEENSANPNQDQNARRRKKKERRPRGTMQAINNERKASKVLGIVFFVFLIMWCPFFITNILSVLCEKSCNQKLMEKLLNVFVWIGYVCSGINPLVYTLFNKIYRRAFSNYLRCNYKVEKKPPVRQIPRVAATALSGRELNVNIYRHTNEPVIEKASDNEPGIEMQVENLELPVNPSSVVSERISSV
Test: 5-HT-evoked Cai2+ release in vitro
Format: cell-based
Details: highest concentration tested in vitro (10 μM)
From the text: General Method for In Vitro Pharmacological Assessment of Compounds of the Invention. The Chinese hamster ovary (CHO) cell lines stably transfected with human unedited (INI) h5-HT2CR (h5-HT2CR—CHO cells) or the human h5-HT2AR (h5-HT2AR—CHO cells) were a generous gift of K. Berg and W. Clarke (University of Texas Health Science Center, San Antonio, TX) (Berg et al., Molecular Pharmacology, 46:477-484, 1994; Ding et al., ACS Chemical Neuroscience, 3:538-545, 2012). […] Changes in Cai^2+ levels were determined using the calcium sensitive dye Calcium 4 or Calcium 6 (FLIPR No-wash kit, Molecular Devices, Sunnyvale, CA). […] The fluorescence readings were then adopted to evaluate the allosteric modulation of 5-HT-induced Cai^2+ release. FlexStation 3 or FLIPR^TETRA was used to measure fluorescence. For FlexStation 3, a 17 s baseline was established before the compound was added, and fluorescence was recorded every 1.7 s thereafter for 240 s. The maximum peak height of each well was determined by SoftMax software (Pro 5.4.5). For FLIPR^TETRA, a 10 s baseline was established before adding the compound, and then record the fluorescence every 1 s for 120 s after the compound or 360 s after 5-HT. The maximum peak height of each well was determined by ScreenWorks 4.0 software. After the final reading, the cells were fixed in 2% paraformaldehyde (Sigma) overnight. […]

Row | agonist-like properties | Compound
1 | agonist-like properties observed | CCCCCCCCCCC[C@@H]1CCN[C@H](C(=O)N[C@@H]([C@H]2O[C@H](SC)[C@H](O)[C@@H](O)[C@H]2O)[C@H](C)Cl)C1.Cl [PNU-69176E]

Same assay, conditions: profile of a 5-HT2CR PAM

Row | 5-HT-evoked Cai2+ release | Compound
2 | potentiated | CCCCCCCCCCC[C@@H]1CCN[C@H](C(=O)N[C@@H]([C@H]2O[C@H](SC)[C@H](O)[C@@H](O)[C@H]2O)[C@H](C)Cl)C1.Cl [PNU-69176E]

Test system: not listed separately
Test: Solubility of representative compounds (Table 1)
Format: physicochemical
Details: solvents listed

Row | Compound | Solubility
3 | 4-phenethyl-N-(2-(piperazin-1-yl)ethyl)piperidine-2-carboxamide [AB0131] | EtOH, DMSO
4 | N,N-bis(2-hydroxyethyl)-4-phenethylpiperidine-2-carboxamide [AB0128] | EtOH, DMSO
5 | N-(2-(1,1-dioxidothiomorpholino)ethyl)-4-phenethylpiperidine-2-carboxamide [AB0132] | EtOH, DMSO
6 | N-(2-(2-hydroxyethoxy)ethyl)-4-phenethylpiperidine-2-carboxamide [AB0136] | EtOH, DMSO
7 | N-(2-(4-methylpiperazin-1-yl)ethyl)-4-phenethylpiperidine-2-carboxamide [AB0146] | EtOH, DMSO
8 | N-(2-(dimethylamino)ethyl)-4-phenethylpiperidine-2-carboxamide [AB0124] | EtOH, DMSO
9 | N-(2-hydroxyethyl)-4-phenethylpiperidine-2-carboxamide [AB0123] | EtOH, DMSO
10 | N-(2-hydroxyethyl)-N-methyl-4-phenethylpiperidine-2-carboxamide [AB0127] | EtOH, DMSO
11 | N-(2-methoxyethyl)-4-phenethylpiperidine-2-carboxamide [AB0122] | EtOH, DMSO
12 | N-(3-morpholinopropyl)-4-phenethylpiperidine-2-carboxamide [AB0145] | EtOH, DMSO
13 | N-((1S,2S)-1,3-dihydroxy-1-(4-(methylthio)phenyl)propan-2-yl)-4-phenethylpiperidine-2-carboxamide [AB0135] | EtOH, DMSO
14 | N-((2R,3R)-1,3-dihydroxybutan-2-yl)-4-phenethylpiperidine-2-carboxamide [AB0126] | EtOH, DMSO
15 | N-((2S,3S)-1,3-dihydroxybutan-2-yl)-4-phenethylpiperidine-2-carboxamide [AB0125] | EtOH, DMSO
16 | N-(azetidin-3-yl)-4-phenethylpiperidine-2-carboxamide [AB0121] | EtOH, DMSO
